Laboratory results as given in patent US20240376074A1, “NAMPT INHIBITORS AND USES THEREOF” (Remedy Plan, Inc., priority 2021, published 2024).

The molecules below were run against T1, NAMPT (Homo sapiens, UniProt P43490) (assay: NAMPT Activity Assay (Abcam #ab221819)). Settings: purified NAMPT, percent inhibition from OD450 nm; compound concentration not given.
T1 construct: purchased Abcam ab221819
Assay type: biochemical
Summary of the method: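 Purified NAMPT preincubated with compound and Reaction Mix #1 at 30*C for 1 hr in a two-step colorimetric kit, followed by Reaction Mix #2. Absorbance at OD450 nm recorded over 5 minutes; percent inhibition relative to no-drug wells.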

T1 sequence (P43490 whole entry): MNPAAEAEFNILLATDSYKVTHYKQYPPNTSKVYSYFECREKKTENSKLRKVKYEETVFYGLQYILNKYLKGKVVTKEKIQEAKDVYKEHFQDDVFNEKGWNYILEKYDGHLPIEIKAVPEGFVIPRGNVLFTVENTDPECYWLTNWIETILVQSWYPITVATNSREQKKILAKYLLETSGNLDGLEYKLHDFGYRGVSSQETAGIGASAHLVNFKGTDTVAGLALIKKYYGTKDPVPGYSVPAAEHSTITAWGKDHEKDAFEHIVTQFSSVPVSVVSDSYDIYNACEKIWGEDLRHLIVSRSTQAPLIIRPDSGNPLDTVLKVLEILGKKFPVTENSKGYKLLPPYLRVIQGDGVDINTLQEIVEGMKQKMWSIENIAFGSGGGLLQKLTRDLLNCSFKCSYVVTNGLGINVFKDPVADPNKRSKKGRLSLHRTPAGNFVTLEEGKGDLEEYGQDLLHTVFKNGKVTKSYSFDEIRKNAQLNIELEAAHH

Row | SMILES | NAMPT Inhibition Code*
1 | CC(=O)N(CC1CC1)c1ccc(-c2ccc(NC(=O)Cc3ccc(F)cc3)cn2)cc1Cl [I-T2390, N-[6-[4-[acetyl(cyclopropylmethyl)amino]-3-chloro-phenyl]-3-pyridyl]-2-(4-fluorophenyl)acetamide] | B (B = >33 to <66% inhibition)
2 | CC(=O)N(CC1CC1)c1ccc(-c2ccc(NC(=O)Cc3ccc(Cl)nc3)cn2)cc1Cl [I-T2391, N-[6-[4-[acetyl(cyclopropylmethyl)amino]-3-chloro-phenyl]-3-pyridyl]-2-(6-chloro-3-pyridyl)acetamide] | C (C = ≥66% inhibition)
3 | CC(=O)N(CC1CC1)c1ccc(-c2ccc(NC(=O)Cc3cccnc3Cl)cn2)cc1Cl [I-T2392, N-[6-[4-[acetyl(cyclopropylmethyl)amino]-3-chloro-phenyl]-3-pyridyl]-2-(2-chloro-3-pyridyl)acetamide] | A (*A = <33% inhibition)
4 | CC(=O)N(CC1CC1)c1ccc(-c2ccc(NC(=O)Cc3ccc(Cl)cc3)cn2)cc1Cl [I-T2393, N-[6-[4-[acetyl(cyclopropylmethyl)amino]-3-chloro-phenyl]-3-pyridyl]-2-(4-chlorophenyl)acetamide] | C (C = ≥66% inhibition)
5 | CC(=O)N(CC1CC1)c1ccc(-c2ccc(NC(=O)CC3CCCCC3)cn2)cc1Cl [I-T2394, N-[6-[4-[acetyl(cyclopropylmethyl)amino]-3-chloro-phenyl]-3-pyridyl]-2-cyclohexyl-acetamide] | A (*A = <33% inhibition)
6 | CC(=O)N(CC1CC1)c1ccc(-c2ccc(C(=O)NCc3ccc(C(F)F)nc3)cn2)cc1Cl [I-T2397, 6-[4-[acetyl(cyclopropylmethyl)amino]-3-chloro-phenyl]-N-[[6-(difluoromethyl)-3-pyridyl]methyl]pyridine-3-carboxamide] | C (C = ≥66% inhibition)
